Seven compounds from US9988395B2, “Antiparasitic compositions and methods utilizing substituted 5,5,7,7-tetramethyl-4,5,6,7-tetrahydrothieno[2,3-C]pyridine derivatives” (THE BOARD OF REGENTS OF THE UNIVERSITY OF TEXAS SYSTEM, priority 2015, dated 2018) can be followed below.

Where two headings read alike, the source gives them in different places.

The test system of data set [1] is L. major Luciferase promastigotes. Put plainly: Antiparasitic activity in L. major Luciferase promastigotes. To be noted: 72 hr. The data set is classed as cell-based, Leishmania major. From the text: IC50 is median inhibitory concentration. TI is therapeutic index.
For the next data set, the system named is T. cruzi trypomastigotes. Put plainly: Proliferation assay of T. cruzi trypomastigotes inside Human Osteoblasts. In kind it is cell-based, Trypanosoma cruzi. To be noted: 48 H treatment. The procedure:
IC50 is median inhibitory concentration. TI is therapeutic index. […] This example further illustrates positives effects of treatment with the present compounds. […] The negative control was treated with 1% DMSO. The positive control was treated with Amp B at […].

The subject of the next data set is T. cruzi Epimastigotes. Put plainly: Activity against T. cruzi epimastigotes. In kind it is cell-based, Trypanosoma cruzi.

On to `CCOC(=O)c1c(NC(=O)c2c(F)c(F)c(F)c(F)c2F)sc2c1CC(C)(C)NC2(C)C` [RS4, Ethyl 5,5,7,7-tetramethyl-2-(perfluorobenzamido)-4,5,6,7-tetrahydrothieno[2,3c]pyridine-3-carboxylate], for which the “L. major LD50 (μM) Promastigotes” value in data set [1] was 0.671 µM. Also, the half-maximal inhibitory concentration (IC50) in the data set with T. cruzi trypomastigotes is below 0.156 µM. For the same compound, the “Mammalian cells LD50 (μM) Raw 264.7 Macrophages” value (“Mammalian cells LD50” for short) with Raw 264.7 Macrophages (macrophage cytotoxicity, text: intraperitoneal macrophages (IPΦ) treated for 48 hrs) was around 15 µM.
`CCOC(=O)c1c(N)sc2c1CC(C)(C)NC2(C)C` [RS1, Ethyl 2-amino-5,5,7,7-tetramethyl-4,5,6,7-tetrahydrothieno[2,3-C]pyridine-3-carboxylate] gave an IC50 in the data set with T. cruzi trypomastigotes (Trypanosoma cruzi, Osteoblast) below 10 µM.
With `CCOC(=O)c1c(NC(=O)c2cccc(C(F)(F)F)c2F)sc2c1CC(C)(C)NC2(C)C` [GP1-04, Ethyl 2-(2-fluoro-3-(trifluoromethyl)benzamido)-5,5,7,7-tetramethyl-4,5,6,7-tetrahydrothieno[2,3-c]pyridine-3-carboxylate], in the data set on Raw 264.7 Macrophages (mouse, 48 h), the “Mammalian cells LD50” value was determined as 17 µM.
The compound `CCOC(=O)c1c(NC(=O)c2ccc(C(F)(F)F)cc2)sc2c1CC(C)(C)NC2(C)C` [RS5, Ethyl 5,5,7,7-tetramethyl-2-(4-(trifluoromethyl)benzamido)-4,5,6,7-tetrahydrothieno[2,3-c]pyridine-3-carboxylate] had an IC50 in the data set with T. cruzi trypomastigotes (Trypanosoma cruzi, Osteoblast) of 7.5 µM.
For the compound `CCOC(=O)c1c(NC(=O)c2cccc(C(F)(F)F)c2)sc2c1CC(C)(C)NC2(C)C` [RS3, Ethyl 5,5,7,7-tetramethyl-2-(3-(trifluoromethyl)benzamido)-4,5,6,7-tetrahydro-thieno[2,3-c]pyridine-3-carboxylate], in the data set on T. cruzi trypomastigotes (Trypanosoma cruzi, Osteoblast), the IC50 is below 1.25 µM. Also, in the data set with Raw 264.7 Macrophages (mouse, 48 h), the “Mammalian cells LD50” value is above 40 µM.
On to `CCOC(=O)c1c(NC(=O)c2ccc(F)c(C(F)(F)F)c2)sc2c1CC(C)(C)NC2(C)C` [GP1-05, Ethyl 2-(4-fluoro-3-(trifluoromethyl)benzamido)-5,5,7,7-tetramethyl-4,5,6,7-tetrahydrothieno[2,3-c]pyridine-3-carboxylate], for which the “Mammalian cells LD50” value with Raw 264.7 Macrophages (mouse, 48 h) amounted to 22 µM.
As for `CCOC(=O)c1c(NC(=O)c2ccc([N+](=O)[O-])s2)sc2c1CC(C)(C)NC2(C)C` [RS2, ethyl 5,5,7,7-tetramethyl-2-(5-nitrothiophene-2-carboxamido)-4,5,6,7-tetrahydrothieno[2,3-c]pyridine-3-carboxylate], in the data set with T. cruzi trypomastigotes (Trypanosoma cruzi, Osteoblast), the half-maximal inhibitory concentration (IC50) is below 1.25 µM. Also, the “T. cruzi LD50 (μM) Epimastigotes” value in the data set on T. cruzi Epimastigotes is around 7.5 µM. Also, the “Mammalian cells LD50” value in the data set with Raw 264.7 Macrophages (mouse, 48 h) was around 32 µM.
